Read-outs that look alike come from different tables or passages of the source.
Legend:
[1] = test system: hen egg chorioallantoic membrane; assay: HET-CAM test (hen egg chorioallantoic membrane irritancy); type: in vivo, chicken; conditions: 2 mL of 1 mg·mL^−1 solution, images 1 min after addition; for HET-CAM Score: graded from 0 (no irritation) to 3 (strong irritation)
Method: The HET-CAM is used for detecting ophthalmic irritancy in vivo[35]. For the HET-CAM, fertilized eggs were obtained from a local market in Korea and incubated for 10 days (37.5 °C and 45% humidity), by maintaining autorotation at 90°·h^−1 to ensure proper development and viability of the embryos. After incubation, the upper shell was cut in a circular shape, without damaging the inner membrane. Immediately after cutting, the inner membrane was carefully removed with forceps, to avoid injury to the blood vessels, and 2 mL of acyl myricetin solutions were placed on the CAM. Prior to the treatment, the solutions were prepared by mixing 1.9 mL of PBS and 100 μL of DMSO dissolving acyl myricetins, to prevent sedimentation of the crystalline solute. A mixture of PBS (1.9 mL) and DMSO (100 μL), and 1 M NaOH aqueous solution were used as negative and positive controls, respectively. Next, by turning an LED flashlight at the bottom of eggshell, CAM images were obtained 1 min after samples addition.
Based on the CAM images, the severity of any hemorrhage, blood-coagulation, and hyperemia was graded from 0 (no irritation) to 3 (strong irritation) according to a previously developed scoring method. We analyzed the CAM images using ImageJ (http://rsb.info.nih.gov/ij/) to prevent arbitrary judgments with respect to the previous scoring method; then we selected blood vessels in the CAM images, and measured hemorrhage, blood-coagulation, and hyperemia as follows. First, the CAM images were loaded individually into ImageJ, cropped to a fixed size to exclude the shell, and converted to grayscale. The CAM images, grayscaled with red stack, were adjusted using the MidGrey method, and the area fraction (%Area) values of black pixels in the adjusted CAM images were measured and recorded.

[2] = Determination of 1-octanol/water partition coefficients (logP); type: physicochemical; conditions: 1-octanol/water (DDW); 1-octanol/DDW, 25 °C
Method: Values for logP were determined to quantify the lipophilicity or hydrophilicity of the separated acyl myricetins, using the previously reported method with slight modifications. After the addition of 1-octanol (500 μL) into 2 mL micro-tubes containing 1 mg of the separated acyl myricetins, the micro-tubes were vortexed for 1 min, followed by sonication (bath-type) for 5 min, and then 500 μL of DDW was added to the tubes. Next, the mixed solutions in the tubes were vortexed again for 5 min and phase-separated by centrifugation (3000 relative centrifugal force for 10 min at 25 °C). The 40 μL of upper layer (1-octanol) and 100 μL of lower layer (DDW) were collected and diluted with 1.96 mL of 1-octanol and 100 μL of DMSO, respectively. The solutes dissolved in the upper and lower layers were quantified based on the standard curves obtained from the UV/Vis-light absorbance spectra (250‒600 nm) using a microplate reader (Synergy H1; BioTek Instruments Inc., VT, USA; measuring interval of 3 nm, at 25 °C). Finally, the logP values were calculated as log(coctanol/cDDW), where coctanol and cDDW are the concentrations of the solutes in the upper and lower layers, respectively.

[3] = Stability assessment against oxidation in aqueous solution by UV/Vis absorbance spectra; type: physicochemical; conditions: PBS pH 7, 37 °C; for decay rate constant k: absorbance at 376 nm, exponential decay-plateau fitting
Method: To assess their stability in an aqueous environment at pH 7 and 37 °C, UV/Vis-light absorbance spectra of the separated acyl […] obtained using the Synergy H1 (BioTek Instruments Inc.; measuring interval of 3 nm, 25 °C), at a wavelength-range of 250-600 nm[34]. One hundred microliters of the separated esters (20 μg·mL^-1), dissolved in DMSO, were mixed in a micro-tube (2 mL) with 1.9 mL of phosphate buffered saline (PBS), pre-adjusted to pH 7 with 1 M HCl aqueous solution. After covering with a lid, the mixture was immediately incubated for 18 h in a heating shaking drybath (S08040; Thermo Scientific) at 37 °C, shaken at 700 rpm. […] The amount of non-oxidized acyl myricetin was determined, based on the absorbance ( abs ) at a wavelength of 376 nm at incubation time ( t ). An exponential decay-plateau fitting method was employed to determine decay rate constant values ( k , s^-1) for the acyl […] follows: ln(abs/abs0)=-[…]) where abs0 is the absorbance at the initiation of incubation and tp is the time in which the left side ( -kt ) reaches the plateau constant ( p ). The non-oxidized proportion of the esters, after all the incubation, was described as e^p . Monitoring the shift of specific peaks in the spectra for the acyl […] could be important for application in food and cosmetics because this can indirectly indicate color changes in the product, which would be unwelcomed to most of the customers. Therefore, the center of gravity in the spectra of the M esters was determined as follows, in order to monitor the shift of specific peaks Centerofgravitycg=∑(absiλi)/∑(absi) where absi is the absorbance at a specific wavelength ( λi , 300-400 nm). Based on the cg estimated during the incubations, the cg shifting rate ( k1 ) was determined using the two segment linear fitting curves as follows: […]1=[…] intercepts of linear curves for the left and right sides, respectively, t1 is the time that the left side ( k1t+cg1 ) takes to become the right side ( k2t+cg2 ), and k2 is an inclination of curve toward the right side.

[4] = test system: differentiated PC-12 cells; assay: Acetylcholine release assay; type: cell-based; conditions: 12 h incubation, read-out: EC50 (inhibition of acetylcholine release)
Method: PC-12 cells, obtained from Korean Cell Line Bank (KCLB, Seoul, Korea), were cultured in media containing 84% (v/v) RPMI 1640 medium, 10% (v/v) heat-inactivated horse serum, 5% (v/v) heat-inactivated FBS, and 1% (v/v) antibiotic-antimycotic (100×) solution, under humidified conditions (37 °C, 5% CO2). The culture medium was refreshed every other day. Prior to further experiments, the viability of the cells in passages 1-5 was assessed using the trypan blue exclusion test. Harvested PC-12 cells were seeded into 24-well plates coated with poly-D-[…] × 10^5 cells per well) and grown in the culture media for one day (37 °C, 5% CO2). […] GIBCO/Invitrogen) and incubated for 5 days. Then, the media were replaced with the low serum medium containing the acyl […] incubated for 12 h. Next, the acetylcholine released from the cells into the medium was quantified using an Acetylcholine Assay Kit (Fluorometric; Cell Biolabs, Inc., CA, USA) and the Synergy H1 (λex/λem, 530 nm/600 nm). Subsequently, using the Kit, the amount of released acetylcholine was determined by subtracting the basal level signal from the signal for sample-treated cells.

[5] = Neutral red uptake (NRU) cytotoxicity assay; type: cell-based; conditions: rat, PC-12 cells, 12 h incubation
Method: (§1) PC-12 cells, obtained from Korean Cell Line Bank (KCLB, Seoul, Korea), were cultured in media containing 84% (v/v) RPMI 1640 medium, 10% (v/v) heat-inactivated horse serum, 5% (v/v) heat-inactivated FBS, and 1% (v/v) antibiotic-antimycotic (100×) solution, under humidified conditions (37 °C, 5% CO2). The culture medium was refreshed every other day. Prior to further experiments, the viability of the cells in passages 1-5 was assessed using the trypan blue exclusion test. Harvested PC-12 cells (~ 80% confluency per well) were seeded into 96-well plates coated with type I-collagen and grown in the culture media for one day (37 °C, 5% CO2). Cells were treated with media containing the acyl […] incubated for 12 h. The media were aspirated, and cells were then incubated for 2 h with 0.33% (w/v) neutral red dissolved in the media. After the incubation, the neutral red media were carefully withdrawn, and cells were rinsed twice with PBS at 37 °C and dried for 1 h. Next, neutral red contained in the dried cells was extracted and solubilized with a solution of 50% (v/v) ethanol, 49% (v/v) DDW, and 1% (v/v) acetic acid, by incubating for 10 min. Absorbance of the neutral red-containing solution at 540 nm was recoded using the Synergy H1. Cell viability was determined based on the absorbance of treated cells compared to that of untreated cells (without acyl […]).

[6] = test system: PC-12 cells; assay: Neutral red uptake (NRU) cytotoxicity assay; type: cell-based; conditions: 12 h incubation
Method: as §1

[Na+].[OH-] [1 M NaOH, NaOH, reference compound]
HET-CAM Description [1]: Severe irritant | HET-CAM Score [1]: 3

O=c1c(O)c(-c2cc(O)c(O)c(O)c2)oc2cc(O)cc(O)c12 [M, myricetin]
logP at 5 min [2]: 1.34 ± 0.1 | decay rate constant k [3]: 0.00037 s⁻¹ | EC50 ([4]; Rattus norvegicus): 5.36 ± 0.2 µM | CC50 at 12 h [5]: 65.4 µM | CC50 [6]: 66.4 ± 10.9 µM | HET-CAM Description [1]: Non irritant | HET-CAM Score [1]: 0

dipropionyl-myricetin [MP2]
k value fold lower than that of myricetin [3]: 2.7 fold | times by which the myricetin cg shift is faster than that of the compound [3]: 5.1 fold | decay rate constant k [3]: 0.00013 s⁻¹ | EC50 [4]: 3.58 ± 0.75 µM | HET-CAM Description [1]: Non irritant | HET-CAM Score [1]: 0

monooctanoyl-myricetin [MO1]
k value fold lower than that of myricetin [3]: ~ 3.1 fold | times by which the myricetin cg shift is faster than that of the compound [3]: ~ 2.3 fold | decay rate constant k [3]: 0.00012 s⁻¹ | EC50 [4]: 2.51 ± 0.89 µM | HET-CAM Description [1]: Non irritant | HET-CAM Score [1]: 0

monopropionyl-myricetin [MP1]
k value fold lower than that of myricetin [3]: ~ 1.9 fold | times by which the myricetin cg shift is faster than that of the compound [3]: ~ 2.4 fold | decay rate constant k [3]: 0.0002 s⁻¹ | EC50 [4]: 3.84 ± 1.08 µM | HET-CAM Description [1]: Non irritant | HET-CAM Score [1]: 0

Source: paper PMC10060577, “Synthesis and physicochemical characterization of acyl myricetins as potential anti-neuroexocytotic agents” (Scientific Reports, 2023)
